Assay results taken from US20070179147A1, “Methods of treating and preventing Alzheimer's disease” (priority 2006, published 2007).
Several values for one entry are separate records, joined by “and”; a condition that tells them apart may be missing. Equal values may be shown once. Entries after “also recorded” stand apart in the source; their conditions may differ. Read-outs that look alike come from different tables or passages of the source.

What was measured:
[1] = test system: primary neurons from cortex and striatum; test: Neurotoxicity of Aβ peptides (morphology, LDH, MTS); type: cell-based, rat; conditions: for increase in LDH of the culture medium: 10 uM peptide, 16 day post-insult, neurons 12-16 d.i.v., 0% AO
primary cortical neurons [2] = test: Neuroprotection against H2O2-induced oxidative stress (MTS assay), comparison with known neuroprotectants; type: cell-based, rat; conditions: 24 h pre-treatment, harsh H2O2 treatment (150 μM)
Description: Twice, half the amount of medium was replaced with fresh neurobasal medium containing no antioxidants. […] The other known neuroprotectants were dissolved in appropriate solvents and diluted to the final concentrations as indicated. […] Each assay was performed in triplicate. After 24 hours, the cultures were evaluated for viability and mitochondrial function using a standard MTS Assay (Promega). The manufacturer's protocols were followed. Experiments were carried out in accordance with the above study design. […] Ginkgo biloba was dissolved in dH2O at a concentration of 6 mg/ml, and further diluted in the neurobasal medium to final concentrations of 2.5 μ/ml, 5 μg/ml, 25 μg/ml, and 250 μg/ml. […] The plates were returned to the incubator at 37° C. with 5% CO2 for one hour. Subsequently, 20 μl MTS reagent was added to each well and the plates were incubated at 37° C. with 5% CO2 for an additional two hours. The absorbance at 490 nm for each well was recorded with the BioRad plate reader (Model 550). Wells containing medium alone were used as blanks. Each data point is the average of three separate assay wells. […] Two-week-old primary cultures were used for this set of study.

cortical neurons [3] = conditions: for protection from neuronal cell death (morphology): 5 μM, hypoxia
Description: Experiments were performed in a 96-well plate format. Cortical neurons were seeded at a density of 50,000 cells/well on a poly-D-lysine coated surface, and cultured in serum-free medium (NB plus B27 supplement) to obtain cultures highly enriched for neurons. Neurons were cultured for over 14 d.i.v. to increase cell susceptibility to excitatory amino acids (Jiang et al., 2001). Six replicate wells were treated as a group to facilitate assay quantitation.
Treatment with drug was continued during and subsequent to a 24-hour period of hypoxia. Cellular morphology and function (MTS and LDH assays) were measured 24 or 48 hours subsequent to the hypoxic insult.
The MTS assay is a colorimetric assay that measures the mitochondrial function in metabolically active cells. This measurement indirectly reflects cell viability. […] 20 μl of MTS reagent (Promega) are added to each well of the 96 well assay plates containing the samples in 100 μl of culture medium. The plate is then incubated in a humidified, 5% CO2 atmosphere at 37° C. for 1-2 hours until the color is fully developed. The absorbance at 490 nm was recorded using a Bio-Rad 96 well plate reader.
The lactate dehydrogenase (LDH) assay is based on the reduction of NAD by the action of LDH. The resulting reduced NAD (NADH) is utilized in the stoichiometric conversion of a tetrazolium dye. If cell-free aliquots of medium from cultures given different treatments are assayed, then the amount of LDH activity can be used as an indicator of relative cell death as well as a function of membrane integrity. A 50 μl aliquot of culture medium from a well in tested 96-well plate is transferred into a well in unused plate and supplemented with 25 μl of equally-mixed Substrate, Enzyme and Dye Solutions (Sigma). The preparation is incubated at room temperature for 20-30 minutes, and then measured spectrophotometrically at wavelength of 490 nm.

primary cortical neurons [4] = test: Protection of neurons from H2O2-induced oxidative stress (60-70 μM H2O2, MTS assay); type: cell-based, rat; conditions: 1-10 μM, 24 h pre-treatment, H2O2 60-70 μM
Description: Twice, half amount of medium was replaced with fresh neurobasal medium containing no antioxidants. […] Each assay was performed in triplicate. […] After 24 hours, the cultures were evaluated for viability and mitochondrial function using a standard MTS Assay (Promega). The manufacturer's protocols were followed. […] The plates were put back into the incubator at 37° C. with 5% CO2 for one hour, then 20 μl MTS reagent was added to each well and plates were incubated at 37° C. with 5% CO2 for an additional two hours. The absorbance at 490 nm for each well was recorded with the BioRad plate reader (Model 550). Wells containing media alone were used as blanks. Each data point is the average of three separate assay wells. […] Three-week-old primary cultures were used for this set of study. Experiments were carried out following the same procedures as experiment 1. Two-week-old primary cultures were used for this study.

[5] = test system: enriched neuronal cultures (cerebellar tissue); test: Neurotoxicity of PAN-811, 24 h treatment (MTT assay); conditions: highest concentration tested (100 μM)
Description: Enriched neuronal cultures were prepared from 15-day-old Sprague-Dawley rat embryos. Using aseptic techniques, the rat embryos were removed from the uterus and placed in sterile neuronal culture medium. Using a dissecting microscope, the brain tissue was removed from each embryo, with care taken to discard the meninges and blood vessels. The cerebellum was separated by gross dissection under the microscope, and only cerebellar tissue was used for the culture. Cells were dissociated by trituration of the tissue and were plated at a density of 5×10^5 cells/well onto 48-well culture plates precoated with poly(L-lysine). […]
Cells were treated with varying amounts of PAN-811 (0-100 μM) for 24 hrs. Cell viability was determined in the MTT assay.
Cell damage was quantitatively assessed using a tetrazolium salt colorimetric assay with 3-(4,5-dimethylthiazol-2-yl)-2,5-diphenyltetrazolium (MTT; Sigma Chemical Co., St. Louis, Mo.). Briefly, the dye was added to each well (final concentration, 1.5 mg/ml), cells were incubated with MTT-acidified isopropanol (0.1 N HCl in isopropanol), and the absorbance intensity (540 nm) of each sample was measured in a 96-well plate reader. Values are expressed relative to vehicle-treated control cells that were maintained on each plate, and the percentage change in cell viability was calculated.

[6] = test system: co-cultured cortical and striatal neurons; test: Protection from Aβ1-42 or Aβ25-35 induced neurotoxicity (morphology, LDH, MTS)
Description: Experiments were performed in a 96-well plate format. Cortical neurons were seeded at a density of 50,000 cells/well on poly-D-lysine coated surface, and cultured in serum-free medium (NB plus B27 supplement containing AO or without AO) to obtain cultures high enriched for neurons. Neurons were cultured for over 14 d.i.v. to increase cell susceptibility to excitatory amino acids (Jiang et al., 2001, supra). Three to six replicate wells were treated as a group to facilitate assay quantitation.
Lyophilized Aβs were dissolved in de-ionized and distilled water to a final concentration of 400 μM, and aliquoted and stored at −20° C. Before use, an aliquot of Aβ was removed from freezer and incubated at 37° C. for 48 hours. Neurons were cultured in NB with B27 supplement containing AO or without AO under 5% CO2 and 95% ambient air, 37° C. At 2 or 3 weeks, the neurons were treated with pre-incubated Aβ and either non-incubated Aβ or Aβ35-25 served as experimental controls.
Treatment with 2μM PAN-811 or 1:12,500 PEG:EtOH (7:3 as vehicle control) was started by at most 3 hours following Aβ insult. The neurons remained in culture post-treatment for different time periods, from 1 to 16 days.
Neuronal cell death was morphologically evaluated.
The MTS assay is a colorimetric assay that measures the mitochondrial function in metabolically active cells. This measurement indirectly reflects cell viability. […] 10 μl of MTS reagent (Promega) are added to each well of the 96 well assay plates containing the samples in 50 μl of culture medium. The plate is then incubated in a humidified, 5% CO2 atmosphere at 37° C. for 1 hour until the color is fully developed. The absorbance at 490 nm was recorded using a Bio-Rad 96 well plate reader.
Lactate dehydrogenase (LDH) assay is based on the reduction of NAD by the action of LDH. The resulting reduced NAD (NADH) is utilized in the stoichiometric conversion of a tetrazolium dye. If cell-free aliquots of medium from cultures given different treatments are assayed, then the amount of LDH activity can be used as an indicator of relative cell death as well as a function of membrane integrity. A 35μl aliquot of culture medium from a well in a 96-well test plate is transferred into a well in unused plate and supplemented with 17.5 μl of equally mixed Substrate, Enzyme and Dye Solutions (Sigma). The preparation is incubated at room temperature for 30 minutes, and then measured spectrophotometrically at a wavelength of 490 nm.
Primary neurons were isolated from cortex and striatum of 17-day-old rat embryonic brain and seeded on 96-well plates at 50,000 cells/well in regular neurobasal medium (Neurobasal Medium supplemented with B27-AO) for 2-3 weeks.
Lyophilized Aβ1-42 and Aβ25-35 were dissolved in distilled, deionized water to a final concentration of 400 uM. Aliquots of the preparations were stored at −20° C. The day before the experiment, the peptides were shifted from −20° C. to 37° C. and incubated overnight at 37° C.
The neurons at 12-16 d.i.v. and 21-23 d.i.v. were insulted by adding 2.5 ul per well of either 400 uM Aβ1-42 or 400 uM Aβ25-35 (final concentration: 10 uM). Untreated and Aβ35-25-treated wells were taken as negative controls and 25 uM glutamate treated wells were set as the positive control. At the same time as or 2-3 hours after the initiation of Aβ insults, 1:5000 diluted PEG:EtOH (vehicle for PAN-811) as well as PAN-811 at concentrations of 0.25, 05., 1 and 2 μM were added to the Aβ insulted wells. The neurons were continuously incubated at 37° C., 5% CO2. Data were obtained from the readings of 3-6 replicate wells.

[7] = Solubility of PAN-811 in solvents; conditions: PEG-300/EtOH vs EtOH
cortical neurons [8] = conditions: for protection (Comments): 24 h pre-treatment, 6 h H/H, 24 h post, culture age 15 days, test range started from 5 μM
Description: (§1) Experiments were performed in a 96-well plate format. Cortical neurons were seeded at a density of 50,000 cells/well on a poly-D-lysine coated surface, and cultured in serum-free medium (NB plus B27 supplement) to obtain cultures highly enriched for neurons. […] Six replicate wells were treated as a group to facilitate assay quantitation.
(§2) The extreme H/H model (0.4 mM glucose) is a mimic of the environment in the central core of an infarct; the mild H/H model (1.63 mM glucose) is a mimic of the environment in the penumbra during MCAO; and the hypoxia only model (neurons in normal in vitro glucose concentration—25 mM) is a mimic of the environment in the penumbra after reperfusion since the possible cell death after reperfusion is predominantly a result of the hypoxic effect rather then energy failure.
Hypoxia/hypoglycemia was obtained by reducing glucose concentration down to 0.4 mM and 1.63 mM for extreme H/H and mild H/H, respectively. BSS (116.0 mM NaCl, 5.4 mM KCl, 0.8 mM MgSO4.e7H20, 1.0 mM NaH2PO4, 1.8 mM CaCl2.2H2O, 26.2 mM NaHCO3, and 0.01 mM glycine) or BSS with 25 mM glucose were de-gassed for 5 minutes prior to use. Culture medium in the plates for hypoxia was replaced with BSS or BSS with glucose. Meanwhile, culture medium in the plates for normoxia was replaced with non de-gassed BSS or BSS with glucose. Cells were committed to hypoxic conditions by transferring the plates into a sealed container (Modular Incubator Chamber-101™, Billups-Rothenberg, Inc.), applying a vacuum for 20 minutes to remove oxygen or other gases from the culture medium, and then refilling the chamber with 5% CO2 and 95% N2 at a pressure of 30 psi for 1 minute. The level of O2 in the chamber was determined to be zero with an O2 indicator (FYRITE Gas Analyzer, Bacharach, Inc.). Culture plates were maintained in the chamber for 6 hours. As an experimental control, duplicate culture plates were maintained under normal culture condition (5% CO2 and 95% ambient air) for the same duration. After a 6-hour treatment, plates were removed from the chamber and the medium in both the hypoxic and normoxic cultures was replaced with a termination solution (DMEM supplemented with 1×sodium pyruvate, 10.0 mM HEPES, and 1×N2 supplement) containing 25 mM glucose and cultured in 5% CO2 and 95% ambient air conditions. […] MK801 was utilized as a positive control. Mitochondrial function and cell death were evaluated at 24 or 48 hours post H/H insult with the MTS and LDH analyses (see below).
The MTS assay is a colorimetric assay that measures the mitochondrial function in metabolically active cells. This measurement indirectly reflects cell viability. […] The absorbance at 490 nm was recorded using a Bio-Rad 96 well plate reader. […]

[9] = test system: enriched neuronal cultures (cerebellar tissue); test: In vitro models of excitotoxicity (H/H, glutamate, staurosporine, veratridine), MTT assay
Description: Enriched neuronal cultures were prepared from 15-day-old Sprague-Dawley rat embryos. Using aseptic techniques, the rat embryos were removed from the uterus and placed in sterile neuronal culture medium. Using a dissecting microscope, the brain tissue was removed from each embryo, with care taken to discard the meninges and blood vessels. The cerebellum was separated by gross dissection under the microscope, and only cerebellar tissue was used for the culture. Cells were dissociated by trituration of the tissue and were plated at a density of 5×10^5 cells/well onto 48-well culture plates precoated with poly(L-lysine). Cultures were maintained in a medium containing equal parts of Eagle's basal medium (without glutamine) and Ham's F-12k medium supplemented with 10% heat-inactivated horse serum, 10% fetal bovine serum, 600 μg/ml glucose, 100 μg/ml glutamine, 50 U/ml penicillin, and 50 μg/ml streptomycin. After 48 h, 10 μM cytosine arabinoside was added to inhibit non-neuronal cell division. Cells were used in experiments after 7 days in culture.
Four in vitro models of excitotoxicity were studied. Cells were either exposed to H/H conditions for 3 hrs or treated for 45 min with one of glutamate (100 μM), staurosporine (1 μM) or veratridine (10 μM). All cells were co-treated with or without PAN-811 (10 μM) in Locke's solution. At the conclusion of the respective excitotoxic exposures, the condition medium (original) was replaced. H/H was induced by incubating the cells in a humidified airtight chamber saturated with 95% nitrogen, 5% CO2 gas for 3 hrs in Locke's solution without added glucose.
Twenty-four hours after the excitotoxic insult, cell viability assessments were made. Cell damage was quantitatively assessed using a tetrazolium salt colorimetric assay with 3-(4,5-dimethylthiazol-2-yl)-2,5-diphenyltetrazolium (MTT; Sigma Chemical Co., St. Louis, Mo.). Briefly, the dye was added to each well (final concentration, 1.5 mg/ml), cells were incubated with MTT-acidified isopropanol (0.1 N HCl in isopropanol), and the absorbance intensity (540 nm) of each sample was measured in a 96-well plate reader. Values are expressed relative to vehicle-treated control cells that were maintained on each plate, and the percentage change in cell viability was calculated.

[10] = test system: male Sprague-Dawley rats, middle cerebral artery occlusion
cortical neurons [11] = test: Extreme hypoxia/hypoglycemia (H/H) model, 0.4 mM glucose
Description: as §1, §2
Hypoxia/hypoglycemia was obtained by reducing glucose concentration down to 0.4 mM and 1.63 mM for extreme H/H and mild H/H, respectively. […] The level of O2 in the chamber was determined to be zero with an O2 indicator (FYRITE Gas Analyzer, Bacharach, Inc.). […] Mitochondrial function and cell death were evaluated at 24 or 48 hours post H/H insult with the MTS and LDH analyses (see below).
The MTS assay is a colorimetric assay that measures the mitochondrial function in metabolically active cells. […] The absorbance at 490 nm was recorded using a Bio-Rad 96 well plate reader. […]

primary cortical neurons [12] = test: ROS generation in neuronal cells (c-DCF fluorescence); type: cell-based, rat; conditions: 10 μM
Description: Twice, half the amount of medium was replaced with fresh neurobasal medium without antioxidants. […] Untreated cells loaded with the dye were used as controls to calculate the c-DCF fluorescence change. Each assay was performed in triplicate. The c-DCF fluorescence at 485/520 nm (Ex/Em) for each well was recorded with the BMG Polar Star plate reader. Wells containing cells without dye were used as blanks. Each data point is the average of three separate assay wells. Untreated cells loaded with the dye were used as a control to calculate the c-DCF fluorescence change. Two-week-old primary cultures were used for the study. CM-H2DCFDA is a cell-permeant indicator for reactive oxygen species (ROS), which is non-fluorescent until the acetate groups are removed by intracellular esterases and oxidation occurs within the cell. It has been widely employed to detect the generation of ROS in cells and animals. Here, it has been used as a tool to assess the effects of PAN-811 on ROS generation in neuronal cells following the procedures described in this example. […] Experiments were repeated four times in different batches of cells and similar results were obtained. See FIG. 2 for the representative experiment.

[13] = 10 uM, 1-6 days post-insult, older neurons (21-23 d.i.v.), 90% AO
[14] = 2 μM, 100% +AO, 1 day post-insult

Aβ1-42: amyloid beta peptide (Aβ1-42) from Sigma, used as neurotoxic insult
increase in LDH of the culture medium [1]: ~40%

O=C(O)CCCC[C@@H]1CCSS1 (racemic) [lipoic acid, reference compound]
neuroprotective capacity (primary cortical neurons [2]; known neuroprotectants): minimal neuroprotective capacity

Aβ25-35: amyloid beta peptide fragment from Oncogene or Bachem, used as neurotoxic insult (GSNKGAIIGLM; Amyloid-beta protein 42; UniProt P05067 696-706, looked up, fragment)
increase in LDH of the culture medium [1]: ~40% | decrease in MTS reading [1, 13]: 7.5% | increase in medium LDH reading [1, 13]: 12-18% | concentration able to induce neurotoxicity ([1]; 100% AO): 80 µM

C[C@]12N[C@H](Cc3ccccc31)c1ccccc12 [MK801, reference compound]
protection from neuronal cell death (morphology) (cortical neurons [3]): efficient protection from neuronal cell death

NC(=S)N/N=C/c1ncccc1N [PAN-811, 3-aminopyridine-2-carboxaldehyde thiosemicarbazone]
neuroprotective capacity (primary cortical neurons [4]): good neuroprotective capacity | maximal toxicity [5]: 7.8% | protection from Aβ25-35 induced neuronal cell death, 3-week old neurons ([6]; 2 μM post-treatment (2 or 3h later), 10 μM Aβ25-35, 90% AO): well protected; also recorded: fully block | MTS reading, 7-week-old mixed neurons [6, 14]: slight reduction in the MTS reading | morphology of neurons, 7-week-old mixed neurons [6, 14]: well preserved the morphology of neurons | protection from neuronal cell death (morphology monitoring) ([6]; 2μM, Aβ insult): efficient protection from neuronal cell death | neuronal and neurite morphologies, younger neurons ([6]; 2 μM, at the same time as or 3 hours after Aβ1-42 or Aβ25-35 insult, 12-16 days, 0% AO): well preserved neuronal and neurite morphologies | Aβ1-42 or Aβ25-35 induced neurotoxicity, younger neurons ([6]; 2 μM, neurons 12-16 d.i.v. (2-week old), 0% AO, 10 uM Aβ): fully block; also recorded: well protected | LDH reading, younger neurons ([6]; 2 μM, same time or 2-3 hours post Aβ1-42 or Aβ25-35, day 16, 0% AO): down to a level lower than untreated (control) group | neuronal and neurite morphologies, older neurons ([6]; 0.25-2 uM, same time as or 2-3 hour after Aβ insult, 90% AO, 1-6 days): well preserved neuronal and neurite morphologies | MTS reading, older neurons ([6]; 0.25 to 1 μM, 3 hours after initiation of Aβ25-35 insult, 90% AO): up to control level | Aβ1-42 and Aβ25-35 induced neurotoxicity, older neurons ([6]; 0.25 to 2 μM, neurons 21-23 d.i.v., 90% AO): fully blocked | lowest dose giving full protection ([6]; administered 3 hours after initiation of Aβ25-35 insult): 0.25 µM | solubility [7]: better solubility in PEG-300/EtOH comparing to EtOH alone | protection from mild H/H induced neurotoxicity (cortical neurons [8]; 2 μM): completely protected | protection from H/H-induced mitochondria dysfunction and neuronal cell death (cortical neurons [8]; 5 μM, 24 h before and during 6-h H/H, MTS and LDH 17 h post insult): completely protected | protection (Comments) (cortical neurons [8]; 5 μM): 5 μM: 100% protected | protection (Comments) (cortical neurons [8]; 10 μM): 10 μM: 100% protected | protection from damage by 3-hour hypoxia/hypoglycemia ([9]; 10 μM PAN-811): 92% | protection from 1 μM staurosporine ([9]; 10 μM PAN-811, 45 min insult): ~47% | protection from 10 μM veratridine ([9]; 10 μM PAN-811, 45 min insult): ~39% | protection from 100 μM glutamate ([9]; 10 μM PAN-811, 45 min insult): ~75% | neuroprotective capacity (primary cortical neurons [2]; PAN-811 1-10 μM): good neuroprotective capacity; also recorded: significant neuroprotection | protection from neuronal cell death (morphology) (cortical neurons [3]): efficient protection from neuronal cell death | neuronal cell death after hypoxia (cortical neurons [3]; 21 μM, 48 h prior, during 24-h hypoxia and 48 h after): completely blocked the cell death | Infarct volume, range ([10]; 1 mg/kg IV 10 minutes prior to MCAO): 42.36-387.08 mm^3 | Infarct Volume (individual rat) ([10]; 1 mg/kg IV 10 minutes prior to MCAO, 24 hours after surgery): 42.36 mm^3 and 126.42 mm^3 and 143.74 mm^3 and 158.83 mm^3 and 196.18 mm^3 and 200.08 mm^3 and 218.54 mm^3 and 221.46 mm^3 and 224.32 mm^3 and 255.36 mm^3 and 267.40 mm^3 and 344.47 mm^3 and 375.59 mm^3 and 387.08 mm^3 | Infarct Volume, mean ([10]; 1 mg/kg IV 10 minutes prior to MCAO, 24 hours after surgery, n 14): 225.85 mm^3 | rats that died ([10]; of the 7 rats that died (4 severe strokes, 3 with SAH), 6 were vehicle rats): 1 | tolerability ([10]; rat, in vivo): well tolerated and relatively non-toxic | extreme H/H-induced neuronal cell death (cortical neurons [11]; 100 μM): only partially blocked | protection from neuronal cell death (cortical neurons [11]; ≦50 μM, extreme H/H): did not protect neuronal cell death | reduction of basal level of ROS generation (primary cortical neurons [12]): ~50% | reduction of H2O2-induced ROS generation (primary cortical neurons [12]; 1 h, then 300 μM H2O2 for 2 h): ~30%

Vitamin E [reference compound]
neuroprotective capacity (primary cortical neurons [2]; known neuroprotectants): minimal neuroprotective capacity
